Measurements: the supplement of paper PMC10307832

Assays:
Test in all cases: relative viability (nuclei count vs DMSO), 5 days (fraction); higher = more cells survive
[1] = compound: CC1=CC(=CC=C1)NC2=NC(=CS2)C3=CC=NC=C3 + Cc1cc(Nc2cc(N3CCN(C)CC3)nc(Sc3ccc(NC(=O)C4CC4)cc3)n2)n[nH]1 [Tozasertib] (partner 0.1 µM)
Summary of the method: (§1)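 Relative viability divides the nuclei count in treated wells by that in vehicle wells. Lung cancer cell lines were seeded in 1536-well plates, dosed by pin tool the next day, and fixed and stained after 5 days in one step with final 0.05% Triton X-100, 1% formaldehyde and 1 ug/ml Hoechst. Dosing was a single drug or a fixed anchor-drug dose plus five library-drug doses (not always all listed) in √10 steps, and values are medians of duplicate plates imaged at 4×.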

[2] = compound: CC1=CC(=CC=C1)NC2=NC(=CS2)C3=CC=NC=C3 + N=C(N)NC(=N)NCCc1ccccc1 [Phenformin] (partner 250 µM)
Summary of the method: as §1

Masitinib + Bortezomib = compound: Cc1ccc(NC(=O)c2ccc(CN3CCN(C)CC3)cc2)cc1Nc1nc(-c2cccnc2)cs1 [Masitinib] + CC(C)C[C@H](NC(=O)[C@H](Cc1ccccc1)NC(=O)c1cnccn1)B(O)O [Bortezomib] (partner 0.002 µM)
Summary of the method: as §1

Masitinib + Lapatinib = compound: Cc1ccc(NC(=O)c2ccc(CN3CCN(C)CC3)cc2)cc1Nc1nc(-c2cccnc2)cs1 [Masitinib] + CS(=O)(=O)CCNCc1ccc(-c2ccc3ncnc(Nc4ccc(OCc5cccc(F)c5)c(Cl)c4)c3c2)o1 [Lapatinib] (partner 2 µM)
Summary of the method: as §1

Cell Line | relative viability ([1]; first compound 0.08 µM) | relative viability ([1]; first compound 0.253 µM) | relative viability ([1]; first compound 0.8 µM) | relative viability ([1]; first compound 2.53 µM) | relative viability ([1]; first compound 8 µM) | relative viability ([2]; first compound 0.08 µM) | relative viability ([2]; first compound 0.253 µM) | relative viability ([2]; first compound 0.8 µM) | relative viability ([2]; first compound 2.53 µM) | relative viability ([2]; first compound 8 µM) | relative viability (Masitinib + Bortezomib; first compound 0.01 µM) | relative viability (Masitinib + Bortezomib; first compound 0.03162 µM) | relative viability (Masitinib + Bortezomib; first compound 0.1 µM) | relative viability (Masitinib + Bortezomib; first compound 0.3162 µM) | relative viability (Masitinib + Bortezomib; first compound 1 µM) | relative viability (Masitinib + Lapatinib; first compound 0.01 µM) | relative viability (Masitinib + Lapatinib; first compound 0.03162 µM) | relative viability (Masitinib + Lapatinib; first compound 0.1 µM) | relative viability (Masitinib + Lapatinib; first compound 0.3162 µM) | relative viability (Masitinib + Lapatinib; first compound 1 µM)
NCI-H2087 | 0.197 | 0.229 | 0.245 | 0.19 | 0.216 | 0.373 | 0.421 | 0.449 | 0.575 | 0.446 | 0.544 | 0.741 | 0.756 | 0.958 | 0.779 | 0.757 | 1.06 | 0.77 | 1.22 | 0.861
NCI-H2126 | 0.77 | 0.756 | 0.798 | 0.686 | 0.737 | 0.466 | 0.439 | 0.523 | 0.498 | 0.523 | 1.05 | 1.17 | 1.1 | 1.03 | 1.11 | 0.773 | 0.724 | 0.734 | 0.662 | 0.769
NCI-H2228 | 0.24 | 0.198 | 0.175 | 0.162 | 0.157 | 0.265 | 0.35 | 0.266 | 0.313 | 0.332 | 1.07 | 1.68 | 1.05 | 1.25 | 0.975 | 0.972 | 1.32 | 1.14 | 1.38 | 1.06
NCI-H2347 | 0.51 | 0.605 | – | 0.489 | 0.489 | 0.387 | 0.381 | – | 0.397 | 0.419 | 0.829 | 1.02 | 0.938 | 0.899 | 0.903 | 0.826 | 0.911 | 0.821 | 0.833 | 0.948
NCI-H2405 | 0.65 | 0.727 | 0.541 | 0.691 | 0.602 | 0.344 | 0.352 | 0.347 | 0.411 | 0.434 | 0.929 | 0.878 | 0.879 | 0.944 | 0.948 | 0.921 | 1.09 | 0.953 | 0.946 | 0.952
NCI-H3122 | 0.386 | 0.455 | 0.47 | 0.384 | 0.457 | 0.359 | 0.348 | 0.364 | 0.373 | 0.343 | 1.09 | 0.997 | 1.1 | 1.03 | 0.984 | 1.01 | 1.04 | 1.02 | 1.04 | 1
PC-3 [JPC-3] | 0.837 | 0.803 | 0.789 | 0.771 | 0.61 | 0.426 | 0.451 | 0.461 | 0.486 | 0.498 | 0.833 | 0.936 | 0.784 | 0.878 | 0.841 | 0.474 | 0.416 | 0.462 | 0.367 | 0.422
PC-14 | 0.527 | 0.58 | 0.497 | 0.526 | 0.555 | 0.47 | 0.457 | 0.601 | 0.521 | 0.502 | 0.786 | 0.878 | 0.857 | 0.84 | 0.846 | 0.286 | 0.314 | 0.315 | 0.185 | 0.309
RERF-LC-KJ | 0.447 | 0.476 | 0.438 | 0.382 | 0.259 | 0.449 | 0.403 | 0.373 | 0.384 | 0.363 | 0.939 | 1 | 1.07 | 1.09 | 1 | 0.94 | 0.705 | 0.83 | 0.73 | 0.719
SK-LU-1 | 0.301 | 0.293 | – | 0.32 | 0.302 | 0.452 | 0.471 | – | 0.731 | 0.63 | 1.2 | 1.13 | 1.28 | 1.24 | 0.899 | 0.928 | 0.853 | 1.04 | 0.986 | 0.779
SW 1573 | 0.184 | 0.168 | 0.279 | 0.154 | 0.185 | 0.316 | 0.36 | 0.352 | 0.389 | 0.399 | 1.08 | 0.979 | 1.06 | 0.894 | 1 | 0.986 | 1.17 | 1.2 | 0.73 | 0.987
